According to PubChem BioAssay AID1259408 (Genetic Toxicology Data Bank (GENE-TOX), 2018):
Activity calls are given as the source filed them. How the calls were made is not given here.

System: GENE-TOX genotoxicity assays, various organisms and cells
Experiment: GENE-TOX mutagenicity studies
Conditions: for call: Assay Type: In vivo carcinogenicity studies
Source text: GENE-TOX provides genetic toxicology (mutagenicity) test data from expert peer review of open scientific literature for more than 3,000 chemicals from the United States Environmental Protection Agency (EPA). GENE-TOX was established to select assay systems for evaluation, review data in the scientific literature, and recommend proper testing protocols and evaluation procedures for these systems.
GENE-TOX covers the years 1991 - 1998. It is no longer updated.
This is an archive assay for GENE-TOX mutagenicity studies.

[1] = Species/Cell Type: Bacillus subtilis (H17 vs M45), Assay Type: Rec-assay, spot test, DNA effects (bacterial DNA repair), Assay Code: REW+, Evaluation Type: Evaluation A (Pre-1980)
[2] = Species/Cell Type: Mammalian polychromatic erythrocytes, Assay Type: Micronucleus test, chromosome aberrations, Assay Code: MNTT, Evaluation Type: Evaluation A (Pre-1980)
[3] = Species/Cell Type: Rodents, Sex: Male, Assay Type: Dominant lethal test, Assay Code: DLT-, Evaluation Type: Evaluation A (Pre-1980)
[4] = Species/Cell Type: Salmonella typhimurium, Assay Type: Forward and reverse gene mutation, host-mediated assay, Assay Code: HMA-, Evaluation Type: Evaluation A (Pre-1980)
[5] = Species/Cell Type: Drosophila melanogaster, Assay Type: Sex-linked recessive lethal gene mutation, Assay Code: SRL+, Evaluation Type: Evaluation A (Pre-1980)
[6] = Species/Cell Type: Mouse, Sex: Male, Assay Type: Sperm morphology, Assay Code: SPI-, Evaluation Type: Evaluation A (Pre-1980)
[7] = Species/Cell Type: Neurospora crassa, Assay Type: Aneuploidy, chromosome aberrations, Assay Code: NEN-, Evaluation Type: Evaluation A (Pre-1980)
[8] = Species/Cell Type: Salmonella typhimurium (one or more of the five standard strains: TA98, TA100, TA1535, TA1537, and TA1538), Assay Type: Histidine reverse gene mutation, Ames assay, Assay Code: SAL+, Evaluation Type: Evaluation A (Pre-1980)
[9] = Species/Cell Type: Human diploid fibroblasts, Assay Type: Unscheduled DNA synthesis (UDS) in vitro, DNA effects, Assay Code: UDH+, Evaluation Type: Evaluation A (Pre-1980)
[10] = Species/Cell Type: Saccharomyces cerevisiae, Assay Type: Mitotic recombination or gene conversion, Assay Code: YEC-, Evaluation Type: Evaluation A (Pre-1980)

[Cl][Cd][Cl]
mutagenic call [1]: active; positive
mutagenic call (Species/Cell Type: Drosophila melanogaster, Assay Type: Aneuploidy, whole sex chromosome loss, chromosome aberrations, Assay Code: DAC+, Evaluation Type: Evaluation A (Pre-1980)): active; positive
mutagenic call (Species/Cell Type: Human lymphocytes or leukocytes, Assay Type: Chromosome aberrations in vitro, Assay Code: CY7-, Evaluation Type: Evaluation A (Pre-1980)): inactive; negative
mutagenic call (Species/Cell Type: Mammalian polychromatic erythrocytes, Assay Type: Micronucleus test, chromosome aberrations, Assay Code: MNT-, Evaluation Type: Evaluation B (Post-1980)): inactive; negative
mutagenic call [2]: no conclusion
mutagenic call (Species/Cell Type: Mouse, Sex: Male, Assay Type: Sperm morphology, Assay Code: SPIT, Evaluation Type: Evaluation A (Pre-1980)): no conclusion
call (Species/Cell Type: Nonhuman, Assay Code: CCG+, Evaluation Type: Evaluation A (Pre-1980)): active; positive
mutagenic call (Species/Cell Type: Nonhuman, Assay Type: Sister-chromatid exchange (SCE) in vitro, Assay Code: SC2-, Evaluation Type: Evaluation B (Post-1980)): inactive; negative
mutagenic call (Species/Cell Type: Rabbit, Sex: Male, Assay Type: Sperm morphology, Assay Code: SPR+, Evaluation Type: Evaluation A (Pre-1980)): active; positive
mutagenic call (Species/Cell Type: Rat, Sex: Male, Assay Type: Sperm morphology, Assay Code: SPA+, Evaluation Type: Evaluation A (Pre-1980)): active; positive
mutagenic call [3]: inactive; negative
mutagenic call (Species/Cell Type: Saccharomyces cerevisiae, Assay Type: Mitotic recombination or gene conversion, Assay Code: YEH+, Evaluation Type: Evaluation A (Pre-1980)): active; positive
mutagenic call (Species/Cell Type: Salmonella typhimurium (one or more of the five standard strains: TA98, TA100, TA1535, TA1537, and TA1538), Assay Type: Histidine reverse gene mutation, Ames assay, Assay Code: SALT, Evaluation Type: Evaluation A (Pre-1980)): no conclusion
mutagenic call [4]: inactive; negative
mutagenic call (Species/Cell Type: Syrian hamster embryo (SA7/SHE) cells, Assay Type: Cell transformation, viral enhanced, Assay Code: CT7+, Evaluation Type: Evaluation A (Pre-1980)): active; positive

CC(C)C(N)C(=O)O (centres undefined)
mutagenic call (Species/Cell Type: Escherichia coli polA (W3119 vs P3478), Assay Type: Rec-assay, DNA effects (bacterial DNA repair), Assay Code: RE1T, Evaluation Type: Evaluation A (Pre-1980)): no conclusion

Nc1ccc([N+](=O)[O-])cc1N
mutagenic call [5]: active; positive
mutagenic call (Species/Cell Type: Fischer rat embryo (RLV/1706) cells, Assay Type: Cell transformation, viral enhanced, Assay Code: CTR+, Evaluation Type: Evaluation A (Pre-1980)): active; positive
mutagenic call (Species/Cell Type: Human diploid fibroblasts, Assay Type: Unscheduled DNA synthesis (UDS) in vitro, DNA effects, Assay Code: UDHT, Evaluation Type: Evaluation A (Pre-1980)): no conclusion
mutagenic call [2]: no conclusion
mutagenic call (Species/Cell Type: Mouse (C3H/10T1/2) cells, Assay Type: Cell transformation, Assay Code: CTH+, Evaluation Type: Evaluation A (Pre-1980)): active; positive
mutagenic call [6]: inactive; negative
mutagenic call [7]: inactive; negative
mutagenic call (Species/Cell Type: Nonhuman, Assay Type: Chromosome aberrations in vitro, Assay Code: CY&+D, Dose Response: With dose response, Evaluation Type: Evaluation A (Pre-1980)): active; positive
call (Species/Cell Type: Nonhuman, Assay Code: CCG-, Evaluation Type: Evaluation A (Pre-1980)): inactive; negative
mutagenic call (Species/Cell Type: Nonhuman, Assay Type: Sister-chromatid exchange (SCE) in vitro, Assay Code: SC2+D, Dose Response: With dose response, Evaluation Type: Evaluation A (Pre-1980)): active; positive
mutagenic call (Species/Cell Type: Nonhuman, Sex: Male, Assay Type: Sister-chromatid exchange (SCE) in vivo, Assay Code: SC3TM, Evaluation Type: Evaluation B (Post-1980)): no conclusion
mutagenic call (Species/Cell Type: Rodents, Sex: Male, Assay Type: Dominant lethal test, Assay Code: DLTT, Evaluation Type: Evaluation A (Pre-1980)): no conclusion
mutagenic call (Species/Cell Type: Saccharomyces cerevisiae, Assay Type: Reverse gene mutation, Assay Code: YER-, Evaluation Type: Evaluation A (Pre-1980)): inactive; negative
mutagenic call [8]: active; positive
mutagenic call (Species/Cell Type: Salmonella typhimurium, Assay Type: Forward and reverse gene mutation, body fluid assay, Assay Code: BFU+, Evaluation Type: Evaluation A (Pre-1980)): active; positive
mutagenic call (Species/Cell Type: Syrian hamster embryo (SHE) cells, Assay Type: Cell transformation, clonal assay, Assay Code: CTC+, Evaluation Type: Evaluation A (Pre-1980)): active; positive

CC(=O)O/C=C/Cc1ccc2c(c1)OCO2
mutagenic call [9]: active; positive

CC[C@]1(O)CC[C@H]2[C@@H]3CCC4=CC(=O)CC[C@@H]4[C@H]3CC[C@@]21C
mutagenic call (Species/Cell Type: Human, Sex: Male, Assay Type: Sperm morphology, Assay Code: SPH+, Evaluation Type: Evaluation A (Pre-1980)): active; positive

Clc1cccc(-c2ccc(Cl)c(Cl)c2Cl)c1Cl
mutagenic call [2]: no conclusion
mutagenic call [6]: inactive; negative
mutagenic call [3]: inactive; negative
mutagenic call (Species/Cell Type: Syrian hamster embryo (SHE) cells, Assay Type: Cell transformation, clonal assay, Assay Code: CTC-, Evaluation Type: Evaluation A (Pre-1980)): inactive; negative

O=C(CCN1CCCCC1)c1ccc2c(c1)OCO2
mutagenic call (Species/Cell Type: Salmonella typhimurium, Assay Type: Forward and reverse gene mutation, host-mediated assay, Assay Code: HMA+, Evaluation Type: Evaluation A (Pre-1980)): active; positive

CC(Br)CBr (centres undefined)
mutagenic call [5]: active; positive

ClCC1OC(CCl)OC(CCl)O1 (centres undefined)
mutagenic call [8]: active; positive

CCCCNC(=O)n1c(NC(=O)OC)nc2ccccc21
mutagenic call (Species/Cell Type: Allium cepa, Assay Type: Chromosome aberrations, Assay Code: ALC+, Evaluation Type: Evaluation A (Pre-1980)): active; positive
mutagenic call (Species/Cell Type: Aspergillus nidulans, Assay Type: Aneuploidy, chromosome aberrations, Assay Code: ASN+, Evaluation Type: Evaluation A (Pre-1980)): active; positive
mutagenic call (Species/Cell Type: Aspergillus nidulans, Assay Type: Mitotic recombination, Assay Code: ASG-, Evaluation Type: Evaluation A (Pre-1980)): inactive; negative
mutagenic call (Species/Cell Type: Escherichia coli WP2, Assay Type: Tryptophan reverse gene mutation, Assay Code: WP2T, Evaluation Type: Evaluation A (Pre-1980)): no conclusion
mutagenic call (Species/Cell Type: Escherichia coli WP2 UVRA, Assay Type: Tryptophan reverse gene mutation, Assay Code: WPU+, Evaluation Type: Evaluation A (Pre-1980)): active; positive
mutagenic call [10]: inactive; negative
mutagenic call [4]: inactive; negative

CC(C)O
mutagenic call [7]: inactive; negative
mutagenic call (Species/Cell Type: Syrian hamster embryo (SA7/SHE) cells, Assay Type: Cell transformation, viral enhanced, Assay Code: CT7-, Evaluation Type: Evaluation A (Pre-1980)): inactive; negative

CC1=C(/C=C/C(C)=C/C=C/C(C)=C/C(=O)O)C(C)(C)CCC1
mutagenic call (Species/Cell Type: Human, Assay Type: Sister-chromatid exchange (SCE) in vitro, Assay Code: SC1+D, Dose Response: With dose response, Evaluation Type: Evaluation A (Pre-1980)): active; positive
mutagenic call (Species/Cell Type: Nonhuman, Assay Type: Sister-chromatid exchange (SCE) in vitro, Assay Code: SC2T, Evaluation Type: Evaluation B (Post-1980)): no conclusion

COc1cc2c(c3oc(=O)c4c(c13)CCOC4=O)[C@@H]1C=CO[C@@H]1O2
mutagenic call [1]: active; positive
mutagenic call [9]: active; positive
mutagenic call (Species/Cell Type: Neurospora crassa, Assay Type: Forward gene mutation, Assay Code: NEF+, Evaluation Type: Evaluation A (Pre-1980)): active; positive
call (Species/Cell Type: Nonhuman, Assay Code: CCG+L, Evaluation Type: Evaluation A (Pre-1980)): active; positive
mutagenic call (Species/Cell Type: Nonhuman, Assay Type: Sister-chromatid exchange (SCE) in vitro, Assay Code: SC2+D*, Activation: With metabolic activation, Dose Response: With dose response, Evaluation Type: Evaluation B (Post-1980)): active; positive
mutagenic call (Species/Cell Type: Rat primary hepatocytes, Assay Type: Unscheduled DNA synthesis (UDS) in vitro, DNA effects, Assay Code: UDP+, Evaluation Type: Evaluation A (Pre-1980)): active; positive
mutagenic call [10]: inactive; negative
mutagenic call (Species/Cell Type: Salmonella typhimurium (one or more of the five standard strains: TA98, TA100, TA1535, TA1537, and TA1538), Assay Type: Histidine reverse gene mutation, Ames assay, Assay Code: SAL+*, Activation: With metabolic activation, Evaluation Type: Evaluation A (Pre-1980)): active; positive

O=c1[nH]c(=O)n([C@H]2C[C@H](O)[C@@H](CO)O2)cc1/C=C/Br
mutagenic call (Species/Cell Type: Human lymphocytes, Assay Type: Sister-chromatid exchange (SCE) in vitro, Assay Code: SCL+, Evaluation Type: Evaluation B (Post-1980)): active; positive
mutagenic call (Species/Cell Type: Human, Assay Type: Sister-chromatid exchange (SCE) in vitro, Assay Code: SC1+D, Dose Response: With dose response, Evaluation Type: Evaluation B (Post-1980)): active; positive

CC(C)C[C@H](NC(=O)CNC(=O)[C@H](Cc1ccc(O)cc1)NC(=O)[C@H](CO)NC(=O)[C@H](Cc1c[nH]c2ccccc12)NC(=O)[C@H](Cc1cnc[nH]1)NC(=O)[C@@H]1CCC(=O)N1)C(=O)N[C@@H](CCCN=C(N)N)C(=O)N1CCC[C@H]1C(=O)NCC(N)=O
mutagenic call (Species/Cell Type: Human, Sex: Male, Assay Type: Sperm morphology, Assay Code: SPHT, Evaluation Type: Evaluation A (Pre-1980)): no conclusion

Nc1ccc(S)cc1
mutagenic call [6]: inactive; negative
